Experimental findings from patent US4962113A, “Pyridinium derivatives, their production and use” (Takeda Chemical Industries, Ltd, priority 1987, dated 1990) are described below.

One experiment deals with PAF-induced hypotension. The experiment in a line: Inhibitory action on PAF-induced hypotension in rats. Type of experiment: in vivo, rat (Sprague-Dawley). To be noted: Rattus norvegicus, read-out: Inhibitory Rate (Lowering of Blood Pressure); for inhibition in vivo at 0.01 mg/kg / inhibition in vivo at 0.03 mg/kg / inhibition in vivo at 0.1 mg/kg: iv; for inhibition in vivo at 3 mg/kg / inhibition in vivo at 10 mg/kg / inhibition in vivo at 30 mg/kg / inhibition in vivo at 1 mg/kg: oral. The method, then:
Sprague-Dawley male rats, each weighing about 250 g, were subjected to the experiment. The rats were cannulated on the side of femoral artery for measuring the blood pressure, and on the side of femoral vein for administering the drug. The blood pressure was measured through a pressure transducer and recorded. First, PAF (1 μg/kg) was administered intravenously (i.v.) to examine the extent of lowering of blood pressure. Then, the test samples were administered intravenously or orally. […]
The inhibitory action on PAF-induced hypotension (% inhibition) is indicated as the ratio of blood pressure-lowering degree (Δ mmHg) induced by PAF after administration of test samples relative to blood pressure-lowering degree (Δ mmHg) induced by PAF before administration of test samples.

In experiment [1] the test system is platelet aggregation (PAF). The experiment in a line: Inhibitory action on PAF-induced rabbit platelet aggregation. Type of experiment: cell-based. To be noted: Oryctolagus cuniculus, read-out: inhibitory percentage (platelet aggregation); for inhibition at 3 µM: 3 × 10^-6 M; for inhibition at 0.3 µM: 3 × 10^-7 M; for inhibition at 0.03 µM: 3 × 10^-8 M. The method, then: Blood was collected directly from the hearts of male rabbits using a syringe containing, as an anticoagulant, 3.15% citric acid (one part to 9 parts of blood). The blood was subjected to centrifuge at 800 rpm for ten minutes at room temperature to obtain platelet rich plasma (PRP). The remaining blood was further subjected to centrifuge at 3000 rpm for ten minnutes to separate platelet poor plasma (PPP) as the supernatant. PRP was diluted with PPP, and the number of platelets was adjusted to about 500,000/ μl. This PRP(250 μl) was stirred for two minutes at 37° C., and there was added a test sample, and the mixture was stirred for further two minutes, followed by addition of PAF of a given concentration. Platelet aggregation was examined by means of a platelet-agglutometer (manufactured by Rika Denki). Platelet aggregation preventing action of the test sample was determined based on the maximum percent light transmission (maximum percent. agglutination).

Like-named read-outs stand apart in the source and are kept apart here.

On to `CCC[n+]1cc(Br)cc(C(=O)N(CCOC(=O)NCCOc2cccc3ccccc23)c2ccccc2)c1` [Production Example 7, 5-bromo-3-[N-[2-[2-(1-naphthyloxy)ethyl]carbamoyloxy]ethyl-N-phenyl]carbamoyl-1-propylpyridinium iodide], for which, in the experiment with PAF-induced hypotension (1 hr.), the inhibition in vivo at 0.01 mg/kg is 59%, the inhibition in vivo at 0.03 mg/kg turned out to be 84%, the inhibition in vivo at 0.1 mg/kg came out at 100% and the inhibition in vivo at 3 mg/kg came to 36%. In the experiment on PAF-induced hypotension (1 hr.), the inhibition in vivo at 10 mg/kg amounted to 100% and the inhibition in vivo at 30 mg/kg came out at 100%. Further, in the experiment on PAF-induced hypotension (2 hr.), the inhibition in vivo at 0.01 mg/kg was 48%, the inhibition in vivo at 0.03 mg/kg was determined as 81%, the inhibition in vivo at 0.1 mg/kg was found to be 91% and the inhibition in vivo at 3 mg/kg came to 59%. In the experiment with PAF-induced hypotension (2 hr.), the inhibition in vivo at 10 mg/kg is 97% and the inhibition in vivo at 30 mg/kg worked out at 100%. In the experiment on PAF-induced hypotension (4 hr.), the inhibition in vivo at 0.01 mg/kg was determined as 45%, the inhibition in vivo at 0.03 mg/kg amounted to 68%, the inhibition in vivo at 0.1 mg/kg was 76% and the inhibition in vivo at 3 mg/kg amounted to 63%. Also, in the experiment with PAF-induced hypotension (4 hr.), the inhibition in vivo at 10 mg/kg is 92% and the inhibition in vivo at 30 mg/kg is 97%. For the same molecule, in the experiment on PAF-induced hypotension (6 hr.), the inhibition in vivo at 0.01 mg/kg is 40%, the inhibition in vivo at 0.03 mg/kg amounted to 57%, the inhibition in vivo at 0.1 mg/kg came to 63% and the inhibition in vivo at 3 mg/kg worked out at 59%. In the experiment on PAF-induced hypotension (6 hr.), the inhibition in vivo at 10 mg/kg was 84% and the inhibition in vivo at 30 mg/kg came out at 89%. Moreover, in the experiment with PAF-induced hypotension (8 hr.), the inhibition in vivo at 0.01 mg/kg is 35%, the inhibition in vivo at 0.03 mg/kg was 51%, the inhibition in vivo at 0.1 mg/kg turned out to be 58% and the inhibition in vivo at 3 mg/kg was 41%. For the same molecule, in the experiment on PAF-induced hypotension (8 hr.), the inhibition in vivo at 10 mg/kg turned out to be 78% and the inhibition in vivo at 30 mg/kg was 86%. In the experiment with PAF-induced hypotension (5 min, i.v., 5 min.), the inhibition in vivo at 0.01 mg/kg is 76%, the inhibition in vivo at 0.03 mg/kg worked out at 100% and the inhibition in vivo at 0.1 mg/kg came out at 100%. Further, in experiment [1], the inhibition at 3 µM is 100%, the inhibition at 0.3 µM turned out to be 100% and the inhibition at 0.03 µM was 18%.

Consider `CCC[n+]1cc(Br)cc(C(=O)N(CCOC(=O)NCCOC(=O)Nc2cccc3ccccc23)c2cccc(OC)c2)c1` [Production Example 94, 5-Bromo-3-[N-(3-methoxyphenyl)-N-[2-[2-(1-naphthylcarbamoyloxy)ethyl]carbamoyloxy]ethyl]carbamoyl-1-propylpyridinium chloride], for which the inhibition in vivo at 0.03 mg/kg in the experiment on PAF-induced hypotension (1 hr.) worked out at 94%; in the experiment with PAF-induced hypotension (2 hr.) it was 86%; with PAF-induced hypotension (4 hr.), 70%; in the experiment with PAF-induced hypotension (6 hr.), 63%; in the experiment with PAF-induced hypotension (8 hr.) it was 52%; in the experiment with PAF-induced hypotension (5 min, i.v., 5 min.), 100%. Also, the inhibition in vivo at 1 mg/kg is 27% in the experiment with PAF-induced hypotension (1 hr.); 34% in the experiment with PAF-induced hypotension (2 hr.); 50% in the experiment with PAF-induced hypotension (4 hr.); 50% with PAF-induced hypotension (6 hr.); 40% in the experiment with PAF-induced hypotension (8 hr.). Also, the inhibition in vivo at 3 mg/kg with PAF-induced hypotension (1 hr.) came out at 67%; in the experiment with PAF-induced hypotension (2 hr.), 89%; with PAF-induced hypotension (4 hr.), 93%; in the experiment with PAF-induced hypotension (6 hr.), 97%; in the experiment with PAF-induced hypotension (8 hr.), 90%. Moreover, the inhibition at 3 µM in experiment [1] turned out to be 100%. Further, in experiment [1], the inhibition at 0.3 µM is 99%. For the same molecule, the inhibition at 0.03 µM in experiment [1] came to 10%.

On to `CCC[n+]1cc(Br)cc(C(=O)N(CCOC(=O)NCCOC(=O)Nc2cccc3ccccc23)c2cccc(Cl)c2)c1` [Production Example 44, 5-bromo-3-[N-(3-chlorophenyl)-N-[2-[2-(1-naphthylcarbamoyloxy)ethyl]carbamoyloxy]ethyl]carbamoyl-1-propylpyridinium chloride], for which the inhibition in vivo at 0.01 mg/kg in the experiment with PAF-induced hypotension (1 hr.) came out at 58%; in the experiment with PAF-induced hypotension (2 hr.), 54%; with PAF-induced hypotension (4 hr.) it was 47%; with PAF-induced hypotension (6 hr.), 41%; with PAF-induced hypotension (5 min, i.v., 5 min.), 68%. For the same molecule, the inhibition in vivo at 0.03 mg/kg with PAF-induced hypotension (1 hr.) was determined as 81%; in the experiment with PAF-induced hypotension (2 hr.), 71%; with PAF-induced hypotension (4 hr.), 64%; in the experiment with PAF-induced hypotension (6 hr.) it was 59%; in the experiment on PAF-induced hypotension (8 hr.), 39%; in the experiment with PAF-induced hypotension (5 min, i.v., 5 min.), 97%. The inhibition in vivo at 1 mg/kg came out at 62% in the experiment on PAF-induced hypotension (1 hr.); 74% in the experiment on PAF-induced hypotension (2 hr.); 73% in the experiment on PAF-induced hypotension (4 hr.); 68% in the experiment on PAF-induced hypotension (6 hr.); 61% with PAF-induced hypotension (8 hr.). In addition, the inhibition in vivo at 3 mg/kg with PAF-induced hypotension (1 hr.) stood at 77%; with PAF-induced hypotension (2 hr.), 84%; with PAF-induced hypotension (4 hr.), 97%; in the experiment on PAF-induced hypotension (6 hr.), 94%; with PAF-induced hypotension (8 hr.), 92%. For the same molecule, the inhibition at 3 µM in experiment [1] came out at 100%. Besides, in experiment [1], the inhibition at 0.3 µM came to 100%. Further, the inhibition at 0.03 µM in experiment [1] amounted to 27%.

Turning to `CCC[n+]1cc(Br)cc(C(=O)N(CCC(=O)NCCNS(=O)(=O)c2ccc3ccccc3c2)c2ccccc2)c1` [Production Example 98, 5-Bromo-3-[N-[2-[2-(2-naphthylsulfonamidoethyl]carbamoyl]ethyl-N-phenyl]carbamoyl-1-propylpyridinium chloride], the inhibition in vivo at 1 mg/kg with PAF-induced hypotension (1 hr.) came out at 70%; with PAF-induced hypotension (2 hr.), 74%; in the experiment on PAF-induced hypotension (4 hr.), 74%; with PAF-induced hypotension (6 hr.), 70%; in the experiment with PAF-induced hypotension (8 hr.) it was 69%. Further, the inhibition in vivo at 3 mg/kg in the experiment on PAF-induced hypotension (1 hr.) is 87%; in the experiment with PAF-induced hypotension (2 hr.), 91%; with PAF-induced hypotension (4 hr.), 93%; with PAF-induced hypotension (6 hr.), 93%; in the experiment with PAF-induced hypotension (8 hr.), 89%. Also, the inhibition at 3 µM in experiment [1] was found to be 100%. In addition, the inhibition at 0.3 µM in experiment [1] stood at 100%. Further, the inhibition at 0.03 µM in experiment [1] was found to be 16%.
